Reference: publication PMC8482815, “Targeting Host Glycolysis as a Strategy for Antimalarial Development” (Frontiers in Cellular and Infection Microbiology, 2021)
“And” between values parts separate entries of the source, which are not always exact repeats. Identical values can stand only once.

Test system: human erythrocytes
Experiment: Untargeted metabolomics and 13C-glucose tracing of enolase inhibitor treated erythrocytes
Type: cell-based
Conditions: 0h
Method: Freshly collected erythrocytes were washed, resuspended to 10% hematocrit in buffer [25mM HEPES (pH 7.4), 120mM NaCl, 5.4mM KCl, 1.8mM CaCl2, and 1mM NaH2PO4], incubated for 1 hour at 37°C, then centrifuged at 2000xg for 5 minutes at 4°C, resuspended in fresh wash buffer to 30-40% hematocrit, and split into 210µL aliquots of packed erythrocytes. […] All samples were incubated at 37°C shaking at 500 RPM. Triplicate samples of supernatants and packed erythrocytes were collected at 0, 0.5, 1, and 6-hour intervals and snap-frozen in liquid N2.
RBC and media samples were extracted at 1:10 and 1:20 dilutions, respectively, in 5:3:2 MeOH : MeCN:H2O v/v/v, and supernatants analyzed on a Thermo Vanquish UHPLC coupled to a Thermo Q Exactive mass spectrometer, as extensively described ([Nemkov et al., 2015]; [Nemkov et al., 2017]). The extraction buffer was supplemented with 40uM 3-^13C lactate to allow absolute quantification of lactate isotopologues, including lactate generated via glycolysis ([1,2,3-^13C3] enriched) vs. the pentose phosphate pathway ([2,3-^13C2] enriched), as described ([Reisz et al., 2016]). Metabolite assignments, peak area integration and isotopologues distributions were determined using Maven (Princeton University) ([Nemkov et al., 2015]; [Nemkov et al., 2017]).
Data were auto-scaled and normalized to zero-hour time points. Metabolites were removed from the dataset if greater than 50% of the samples contained missing values or the relative standard deviation among replicates exceeded 25%. Additionally, data was filtered using the interquartile range to reduce near-constant values from the experiment by 5%.
A principal component analysis of preprocessed data was plotted with the 95% confidence interval minimum volume enclosing ellipsoid for each respective group (MetaboAnalyst, cluster, plotly). A two-way repeated measures analysis of variance (ANOVA) was performed with multiple comparisons corrected for using a false discovery rate p-value cutoff of 0.05. Metabolite-Pathway analysis was performed using the R package of MetaboAnalyst, as previously described ([Xia and Wishart, 2010]). Metabolite-Protein nodal analysis was performed using omicsnet.ca and as previously described ([Zhou and Xia, 2018]).

[1] = treated erythrocytes, one value per replicate sample, polarity +
[2] = treated erythrocytes, one value per replicate sample, polarity -
[3] = treated erythrocytes, replicate samples

CC(C)(C)C(=O)OCOP(=O)(OCOC(=O)C(C)(C)C)C1CCCN(O)C1=O (stereo not shown) [POMHEX]
AMP level (metabolomics signal) (replicate samples): 2.43E+06 and 4.08E+06 and 2.38E+06 | ATP level (metabolomics signal) (replicate samples): 7.62E+03 and 7.58E+03 and 9.00E+03 | Adenine level (metabolomics signal) (replicate samples): 1.31E+05 and 1.38E+05 and 1.32E+05 | Cytosine level (metabolomics signal) (replicate samples): 8.55E+04 and 2.38E+05 and 4.74E+05 | L-alanine level (metabolomics signal) (replicate samples): 7.28E+06 and 6.97E+06 and 9.28E+06 | L-arginine level (metabolomics signal) (replicate samples): 7.34E+06 and 1.51E+07 and 4.28E+06 | L-asparagine level (metabolomics signal) (replicate samples): 3.07E+06 and 3.14E+06 and 2.95E+06 | L-aspartate level (metabolomics signal) (replicate samples): 3.52E+07 and 3.22E+07 and 3.54E+07 | L-cysteine level (metabolomics signal) (replicate samples): 4.11E+05 and 4.42E+05 and 1.93E+05 | L-glutamate level (metabolomics signal) (replicate samples): 3.91E+07 and 3.64E+07 and 4.16E+07 | L-glutamine level (metabolomics signal) (replicate samples): 3.51E+07 and 3.65E+07 and 2.77E+07 | L-histidine level (metabolomics signal) (replicate samples): 1.77E+06 and 1.86E+06 and 1.64E+06 | L-isoleucine level (metabolomics signal) (replicate samples): 0.00E+00 and 2.79E+07 and 2.01E+07 | L-leucine level (metabolomics signal) (replicate samples): 1.13E+08 and 1.29E+08 and 1.02E+08 | L-lysine level (metabolomics signal) (replicate samples): 3.76E+06 and 3.91E+06 and 3.34E+06 | L-methionine level (metabolomics signal) (replicate samples): 1.20E+07 and 1.28E+07 and 9.77E+06 | L-phenylalanine level (metabolomics signal) (replicate samples): 3.89E+06 and 5.35E+06 and 4.43E+06 | L-proline level (metabolomics signal) (replicate samples): 3.87E+07 and 4.04E+07 and 2.78E+07 | L-serine level (metabolomics signal) (replicate samples): 2.27E+06 and 2.30E+06 and 2.07E+06 | L-threonine level (metabolomics signal) (replicate samples): 3.34E+06 and 3.50E+06 and 3.23E+06 | L-tryptophan level (metabolomics signal) (replicate samples): 4.61E+06 and 3.92E+06 and 4.51E+06 | L-tyrosine level (metabolomics signal) (replicate samples): 1.31E+07 and 1.44E+07 and 1.06E+07 | L-valine level (metabolomics signal) (replicate samples): 1.25E+08 and 1.20E+08 and 1.19E+08 | dCMP level (metabolomics signal) (replicate samples): 2.66E+04 and 2.57E+04 and 1.91E+04 | dTMP level (metabolomics signal) (replicate samples): 1.47E+06 and 1.26E+06 and 9.65E+05 | glycine level (metabolomics signal) (replicate samples): 1.29E+06 and 1.21E+06 and 1.30E+06 | N-Acyl-D-aspartate (C06380) metabolite signal [1]: 2.82E+05 and 3.24E+05 and 2.89E+05 | Poly-gamma-D-glutamate (C05723) metabolite signal [1]: 2.28E+07 and 2.38E+07 and 1.86E+07 | D-Ribitol 5-phosphate (C01068) metabolite signal [2]: 1.18E+04 and 2.78E+04 and 2.55E+04 | D-glucono-1,5-lactone (C00198) metabolite signal [2]: 7.35E+05 and 6.39E+05 and 6.34E+05 | L-Noradrenaline (C00547) metabolite signal [2]: 2.10E+05 and 2.67E+05 and 1.54E+05 | Oxalosuccinate (C05379) metabolite signal [2]: 1.80E+05 and 1.89E+05 and 1.75E+05 | Pyridoxamine (C00534) metabolite signal [2]: 3.47E+04 and 2.11E+04 and 4.13E+04 | Thioredoxin disulfide (C00343) metabolite signal [2]: 8.56E+04 and 8.74E+04 and 6.44E+04 | 1-4-beta-D-Xylan (metabolite signal) [3]: 2.75E+05 and 3.19E+05 and 2.60E+05 | 2-Hydroxyglutarate/Citramalate (C02630) metabolite signal [3]: 1.87E+05 and 1.44E+05 and 1.36E+05 | 5-6-Dihydrothymine (C00906) metabolite signal [3]: 3.37E+05 and 3.23E+05 and 2.70E+05 | 5-10-Methenyltetrahydrofolate (metabolite signal) [3]: 3.52E+05 and 3.49E+05 and 3.48E+05 | 5-Hydroxyisourate (C11821) metabolite signal [3]: 4.58E+06 and 4.14E+06 and 5.16E+06 | 5-L-Glutamyl-taurine (metabolite signal) [3]: 1.13E+05 and 1.05E+05 and 1.57E+05 | 5-Oxoproline (metabolite signal) [3]: 1.19E+06 and 1.09E+06 and 9.91E+05 | (S)(+)-Allantoin (C02350) metabolite signal [3]: 4.00E+04 and 4.50E+04 and 4.43E+04 | Allantoate (C00499) metabolite signal [3]: 3.63E+05 and 4.40E+05 and 2.26E+05 | Ascorbate (metabolite signal) [3]: 1.03E+05 and 1.39E+05 and 1.05E+05 | CMP-N-acetylneuraminate (metabolite signal) [3]: 3.22E+04 and 2.63E+04 and 3.17E+04 | Carnosine (metabolite signal) [3]: 2.22E+05 and 1.73E+05 and 2.52E+05 | Citrate (C00158) metabolite signal [3]: 2.73E+04 and 3.19E+04 and 2.59E+04 | Creatine (metabolite signal) [3]: 2.64E+08 and 2.63E+08 and 2.96E+08 | Creatinine (metabolite signal) [3]: 3.90E+06 and 3.59E+06 and 3.78E+06 | Cys-Gly (metabolite signal) [3]: 1.91E+06 and 2.03E+06 and 2.13E+06 | D-Glucosamine (metabolite signal) [3]: 6.56E+04 and 1.26E+05 and 1.11E+05 | D-Glucose (C00031) metabolite signal [3]: 7.03E+06 and 7.96E+06 and 6.07E+06 | D-Ribose (C00121) metabolite signal [3]: 2.42E+05 and 2.08E+05 and 2.00E+05 | Dehydroascorbate (metabolite signal) [3]: 6.66E+03 and 1.26E+04 and 9.16E+03 | Dihydrofolate (metabolite signal) [3]: 2.17E+06 and 2.08E+06 and 1.28E+06 | Dimethylglycine (metabolite signal) [3]: 1.13E+06 and 1.12E+06 and 1.22E+06 | Diphosphate (C00013) metabolite signal [3]: 2.29E+03 and 2.81E+03 and 1.30E+03 | Fumarate (C00122) metabolite signal [3]: 1.70E+05 and 1.53E+05 and 1.29E+05 | Glutathione (C00051) metabolite signal [3]: 1.29E+08 and 1.42E+08 and 1.45E+08 | Glutathione disulfide (metabolite signal) [3]: 4.07E+05 and 2.99E+05 and 3.44E+05 | Hypoxanthine (C00262) metabolite signal [3]: 1.23E+05 and 8.50E+04 and 1.07E+05 | IMP (C00130) metabolite signal [3]: 2.07E+04 and 4.13E+04 and 2.42E+04 | Inosine (C00294) metabolite signal [3]: 1.23E+05 and 1.19E+05 and 1.09E+05 | L-Citrulline (metabolite signal) [3]: 2.18E+06 and 2.13E+06 and 2.77E+06 | L-Homoserine (metabolite signal) [3]: 1.85E+05 and 2.19E+05 and 1.31E+05 | Lactate (C01432) metabolite signal [3]: 7.44E+06 and 7.84E+06 and 7.12E+06 | Malate (C00149) metabolite signal [3]: 4.07E+05 and 3.13E+05 and 3.03E+05 | Mannitol (C00392) metabolite signal [3]: 1.01E+05 and 1.11E+05 and 1.22E+05 | N-Acetylneuraminate (metabolite signal) [3]: 3.05E+04 and 3.27E+04 and 2.27E+04 | N-Glycoloyl-neuraminate (metabolite signal) [3]: 2.02E+05 and 2.52E+05 and 1.61E+05 | NAD+ (C00003) metabolite signal [3]: 3.20E+05 and 3.25E+05 and 4.11E+05 | Nicotinamide (C00153) metabolite signal [3]: 2.56E+07 and 2.61E+07 and 2.89E+07 | Ornithine (metabolite signal) [3]: 2.51E+06 and 2.56E+06 and 2.47E+06 | Oxaloacetate (C00036) metabolite signal [3]: 4.82E+04 and 5.32E+04 and 4.35E+04 | Phosphoserine (metabolite signal) [3]: 1.31E+05 and 1.59E+05 and 1.52E+05 | Putrescine (metabolite signal) [3]: 5.04E+04 and 6.26E+04 and 7.87E+04 | Pyridoxal (C00250) metabolite signal [3]: 5.06E+04 and 4.81E+04 and 5.68E+04 | Pyruvate (C00022) metabolite signal [3]: 8.21E+05 and 7.91E+05 and 7.06E+05 | S-Glutathionyl-L-cysteine (metabolite signal) [3]: 1.68E+05 and 1.57E+05 and 8.75E+04 | Sedoheptulose 1-phosphate (C06222) metabolite signal [3]: 4.53E+04 and 4.14E+04 and 2.92E+04 | Spermidine (metabolite signal) [3]: 9.43E+06 and 1.01E+07 and 9.63E+06 | Spermine (metabolite signal) [3]: 8.86E+06 and 9.58E+06 and 9.08E+06 | Succinate (C00042) metabolite signal [3]: 1.10E+05 and 1.06E+05 and 1.08E+05 | Thymidine (C00214) metabolite signal [3]: 1.93E+04 and 1.39E+04 and 1.28E+04 | UDP (C00015) metabolite signal [3]: 3.47E+05 and 4.31E+05 and 2.43E+05 | UDP-N-acetyl-D-glucosamine (metabolite signal) [3]: 2.77E+04 and 2.13E+04 (2×) | UDP-glucose (C00029) metabolite signal [3]: 8.05E+04 and 6.15E+04 and 6.31E+04 | Urate (C00366) metabolite signal [3]: 4.79E+04 and 4.62E+04 and 3.28E+04 | Xanthine (C00385) metabolite signal [3]: 3.87E+05 and 3.78E+05 and 3.91E+05 | alpha-D-Glucosamine 1-phosphate (metabolite signal) [3]: 1.72E+06 and 1.66E+06 and 2.32E+06 | alpha-D-Ribose 1-phosphate (C00620) metabolite signal [3]: 1.60E+05 and 1.43E+05 and 1.11E+05 | gamma-Glutamyl-gamma-aminobutyrate (metabolite signal) [3]: 8.08E+04 and 5.90E+04 and 1.10E+05 | gamma-L-Glutamyl-D-alanine (metabolite signal) [3]: 2.48E+04 and 2.19E+04 and 1.85E+04 | gamma-L-Glutamyl-L-cysteine (metabolite signal) [3]: 2.81E+04 and 3.64E+04 and 2.51E+04
